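All cell lines were grown in 96-well plates and treated with compound for 48 hours. GI50 marks 50% less growth. TGI: total growth inhibition.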
How the values were obtained:
Assay in all cases: inhibition of tumour cell growth, NCI panel, 48 h
K-562 leukemia = test system: K-562 leukemia
EKVX NSCLC = test system: EKVX NSCLC
T-47D breast = test system: T-47D breast
OVCAR-4 ovarian = test system: OVCAR-4 ovarian
RXF 393 renal = test system: RXF 393 renal
SR leukemia = test system: SR leukemia
IGROV1 ovarian = test system: IGROV1 ovarian
MDA-MB-435 = test system: MDA-MB-435
SNB-19 CNS = test system: SNB-19 CNS
KM12 colon = test system: KM12 colon
U251 CNS = test system: U251 CNS
SN12C renal = test system: SN12C renal
HCT-116 colon = test system: HCT-116 colon
HT29 colon = test system: HT29 colon
HCC-2998 colon = test system: HCC-2998 colon
SK-OV-3 ovarian = test system: SK-OV-3 ovarian
OVCAR-3 ovarian = test system: OVCAR-3 ovarian
NCI/ADR-RES ovarian = test system: NCI/ADR-RES ovarian
SF-539 CNS = test system: SF-539 CNS
UACC-257 melanoma = test system: UACC-257 melanoma
RPMI-8226 leukemia = test system: RPMI-8226 leukemia
A498 renal = test system: A498 renal
NCI-H522 lung = test system: NCI-H522 lung
HCT-15 colon = test system: HCT-15 colon
PC-3 prostate = test system: PC-3 prostate
A549 NSCLC = test system: A549 NSCLC
OVCAR-5 ovarian = test system: OVCAR-5 ovarian
HL-60(TB) leukemia = test system: HL-60(TB) leukemia
HOP-92 NSCLC = test system: HOP-92 NSCLC
MOLT-4 leukemia = test system: MOLT-4 leukemia
SF-295 CNS = test system: SF-295 CNS
MALME-3M melanoma = test system: MALME-3M melanoma
NCI-H460 lung = test system: NCI-H460 lung
SW-620 colon = test system: SW-620 colon
MDA-MB-231 breast = test system: MDA-MB-231 breast
COLO 205 colon = test system: COLO 205 colon
UO-31 renal = test system: UO-31 renal
M14 melanoma = test system: M14 melanoma
SK-MEL-28 melanoma = test system: SK-MEL-28 melanoma
HS 578T breast = test system: HS 578T breast
786-0 renal = test system: 786-0 renal
MCF7 breast = test system: MCF7 breast
SNB-75 CNS = test system: SNB-75 CNS
ACHN renal = test system: ACHN renal
CAKI-1 renal = test system: CAKI-1 renal
LOX IMVI melanoma = test system: LOX IMVI melanoma
NCI-H226 lung = test system: NCI-H226 lung
SK-MEL-2 melanoma = test system: SK-MEL-2 melanoma
HOP-62 NSCLC = test system: HOP-62 NSCLC
TK-10 renal = test system: TK-10 renal
SK-MEL-5 melanoma = test system: SK-MEL-5 melanoma
CCRF-CEM leukemia = test system: CCRF-CEM leukemia
DU-145 prostate = test system: DU-145 prostate
UACC-62 melanoma = test system: UACC-62 melanoma
OVCAR-8 ovarian = test system: OVCAR-8 ovarian
SF-268 CNS = test system: SF-268 CNS
BT-549 breast = test system: BT-549 breast

`COCCOc1ccc2ncc(C#Cc3cncc(C(=O)Nc4ccc(CN5CCN(C)CC5)c(C(F)(F)F)c4)c3)n2n1` gave a GI50 (K-562 leukemia) of 5 nM, a TGI (K-562 leukemia) of 937 nM and a GI50 (EKVX NSCLC) of 951 nM. For the same compound, the TGI (EKVX NSCLC) was 7750 nM, the GI50 (T-47D breast) was 2720 nM and the TGI (T-47D breast) was 12500 nM. For the same compound, the GI50 (OVCAR-4 ovarian) was 840 nM, the TGI (OVCAR-4 ovarian) was 8450 nM and the GI50 (RXF 393 renal) was 733 nM. The TGI (RXF 393 renal) was 1410 nM, the GI50 (SR leukemia) was 687 nM and the TGI (SR leukemia) was 2480 nM. For the same compound, the GI50 (IGROV1 ovarian) was 351 nM, the TGI (IGROV1 ovarian) was 2350 nM and the GI50 (MDA-MB-435) was 421 nM. The TGI (MDA-MB-435) was 4440 nM, the GI50 (SNB-19 CNS) was 3920 nM and the TGI (SNB-19 CNS) was 15000 nM. For the same compound, the GI50 (KM12 colon) was 14 nM, the TGI (KM12 colon) was 2720 nM and the GI50 (U251 CNS) was 2190 nM. The TGI (U251 CNS) was 10200 nM, the GI50 (SN12C renal) was 516 nM and the TGI (SN12C renal) was 3670 nM. For the same compound, the GI50 (HCT-116 colon) was 227 nM, the TGI (HCT-116 colon) was 1020 nM and the GI50 (HT29 colon) was 372 nM. For the same compound, the TGI (HT29 colon) was 3090 nM, the GI50 (HCC-2998 colon) was 1180 nM and the TGI (HCC-2998 colon) was 7540 nM. The GI50 (SK-OV-3 ovarian) was 2070 nM, the TGI (SK-OV-3 ovarian) was 6400 nM and the GI50 (OVCAR-3 ovarian) was 1090 nM. For the same compound, the TGI (OVCAR-3 ovarian) was 7440 nM, the GI50 (NCI/ADR-RES ovarian) was 1210 nM and the TGI (NCI/ADR-RES ovarian) was 3410 nM. The GI50 (SF-539 CNS) was 209 nM, the TGI (SF-539 CNS) was 3090 nM and the GI50 (UACC-257 melanoma) was 1200 nM. The TGI (UACC-257 melanoma) was 5690 nM, the GI50 (RPMI-8226 leukemia) was 874 nM and the TGI (RPMI-8226 leukemia) was 2590 nM. The GI50 (A498 renal) was 1170 nM, the TGI (A498 renal) was 2250 nM and the GI50 (NCI-H522 lung) was 620 nM. It also gave a TGI (NCI-H522 lung) of 1450 nM, a GI50 (HCT-15 colon) of 549 nM and a TGI (HCT-15 colon) of 2510 nM. It also gave a GI50 (PC-3 prostate) of 1790 nM, a TGI (PC-3 prostate) of 8290 nM and a GI50 (A549 NSCLC) of 885 nM. The TGI (A549 NSCLC) was 2610 nM, the GI50 (OVCAR-5 ovarian) was 663 nM and the TGI (OVCAR-5 ovarian) was 6070 nM. It also gave a GI50 (HL-60(TB) leukemia) of 311 nM, a TGI (HL-60(TB) leukemia) of 1480 nM and a GI50 (HOP-92 NSCLC) of 142 nM. It also gave a TGI (HOP-92 NSCLC) of 628 nM, a GI50 (MOLT-4 leukemia) of 696 nM and a TGI (MOLT-4 leukemia) of 3730 nM. The GI50 (SF-295 CNS) was 3360 nM, the TGI (SF-295 CNS) was 12700 nM and the GI50 (MALME-3M melanoma) was 220 nM. The TGI (MALME-3M melanoma) was 868 nM, the GI50 (NCI-H460 lung) was 708 nM and the TGI (NCI-H460 lung) was 1470 nM. It also gave a GI50 (SW-620 colon) of 402 nM, a TGI (SW-620 colon) of 1350 nM and a GI50 (MDA-MB-231 breast) of 274 nM. The TGI (MDA-MB-231 breast) was 1240 nM, the GI50 (COLO 205 colon) was 529 nM and the TGI (COLO 205 colon) was 1540 nM. For the same compound, the GI50 (UO-31 renal) was 622 nM, the TGI (UO-31 renal) was 3190 nM and the GI50 (M14 melanoma) was 265 nM. The TGI (M14 melanoma) was 1130 nM, the GI50 (SK-MEL-28 melanoma) was 676 nM and the TGI (SK-MEL-28 melanoma) was 1720 nM. The GI50 (HS 578T breast) was 598 nM, the TGI (HS 578T breast) was 2640 nM and the GI50 (786-0 renal) was 802 nM. The TGI (786-0 renal) was 1640 nM, the GI50 (MCF7 breast) was 166 nM and the TGI (MCF7 breast) was 968 nM. It also gave a GI50 (SNB-75 CNS) of 272 nM, a TGI (SNB-75 CNS) of 1260 nM and a GI50 (ACHN renal) of 364 nM. The TGI (ACHN renal) was 2010 nM, the GI50 (CAKI-1 renal) was 484 nM and the TGI (CAKI-1 renal) was 2920 nM. It also gave a GI50 (LOX IMVI melanoma) of 367 nM, a TGI (LOX IMVI melanoma) of 1040 nM and a GI50 (NCI-H226 lung) of 271 nM. For the same compound, the TGI (NCI-H226 lung) was 1540 nM, the GI50 (SK-MEL-2 melanoma) was 403 nM and the TGI (SK-MEL-2 melanoma) was 1130 nM. It also gave a GI50 (HOP-62 NSCLC) of 997 nM, a TGI (HOP-62 NSCLC) of 4370 nM and a GI50 (TK-10 renal) of 1590 nM. It also gave a TGI (TK-10 renal) of 5860 nM, a GI50 (SK-MEL-5 melanoma) of 1700 nM and a TGI (SK-MEL-5 melanoma) of 7260 nM. For the same compound, the GI50 (CCRF-CEM leukemia) was 700 nM, the TGI (CCRF-CEM leukemia) was 4630 nM and the GI50 (DU-145 prostate) was 1060 nM. For the same compound, the TGI (DU-145 prostate) was 4760 nM, the GI50 (UACC-62 melanoma) was 1500 nM and the TGI (UACC-62 melanoma) was 7660 nM. The GI50 (OVCAR-8 ovarian) was 874 nM, the TGI (OVCAR-8 ovarian) was 2220 nM and the GI50 (SF-268 CNS) was 787 nM. The TGI (SF-268 CNS) was 2130 nM, the GI50 (BT-549 breast) was 1540 nM and the TGI (BT-549 breast) was 4280 nM.

From PubChem BioAssay (NCI)
